Measurements published in patent US4472404A, “8-Quinolinyl carbamates and their use as urinary tract antimicrobials” (priority 1982, dated 1984).
In brackets after ≈: the same amount, converted by molar mass.

These compounds were tested on Enterobacter aerogenes ATCC 13048 (assay: Minimum inhibitory concentration, urinary tract organisms (Example 13)). Conditions: Klebsiella aerogenes, ATCC13048, read-out: Minimum Inhibitory Concentration.
Type: cell-based
Experimental: (§1) The test compound was added to molten agar as a solution (when conveniently soluble in a solvent such as dimethylformamide) or a suspension forming a mixture having a concentration of 0.05 percent (500 ppm). The mixture was stirred and poured into plates to harden. When hardened, the plates were inoculated with various bacteria and fungi. The bacteria-inoculated plates were incubated at 37° C. for 24 hours, while the fungi-inoculated plates were incubated for about 72-120 hours. Following incubation, the plates were examined for growth or inhibition of the respective organisms.
(§2) After the initial readings, compounds showing sufficient activity were re-tested at various concentrations to determine the minimum inhibitory concentration (in ppm) of the compounds of the invention against the various bacteria and fungi tested.
(§3) Following a procedure substantially the same as that described in Example 12, the minimum inhibitory concentration for the compounds described herein was determined for various organisms representative of those commonly associated with urinary tract infections.
(§4) The organisms used in this procedure and the abbreviations designated in Table 3 are as follows: […]

Row | Structure (SMILES) | MIC [µg/mL]
1 | CNC(=O)Oc1c(Br)cc(Br)c2cccnc12 [Example 11, 5,7-Dibromo-8-quinolinyl N-methylcarbamate] | 25 (≈ 69.4 µM)

Same assay, conditions: Klebsiella aerogenes, ATCC13048; Ea 13048; read-out: Minimum Inhibitory Concentration

Row | Structure (SMILES) | MIC [µg/mL]
2 | O=C(NCCCl)Oc1ccc(Cl)c2cccnc12 [Example 6, 5-Chloro-8-quinolinyl N-(2-chloroethyl)carbamate] | 500 (≈ 1750 µM)

These compounds were tested on Escherichia coli ATCC 11229 in the same assay as above. Conditions: ATCC11229, Ec 11229, read-out: Minimum Inhibitory Concentration.
Type: cell-based
Experimental: as §1, §2, §3, §4

Row | Structure (SMILES) | MIC [µg/mL]
3 | O=C(NCCCl)Oc1ccc(Cl)c2cccnc12 [Example 6, 5-Chloro-8-quinolinyl N-(2-chloroethyl)carbamate] | 75 (≈ 263 µM)

Same assay, conditions: ATCC11229, read-out: Minimum Inhibitory Concentration

Row | Structure (SMILES) | MIC [µg/mL]
4 | CNC(=O)Oc1c(Br)cc(Br)c2cccnc12 [Example 11, 5,7-Dibromo-8-quinolinyl N-methylcarbamate] | 25 (≈ 69.4 µM)

Each compound was assayed on Escherichia coli ATCC 25922 in the same assay as above. Conditions: ATCC25922, Ec 25922, read-out: Minimum Inhibitory Concentration.
Type: cell-based
Experimental: as §1, §2, §3, §4

Row | Structure (SMILES) | MIC [µg/mL]
5 | O=C(NCCCl)Oc1ccc(Cl)c2cccnc12 [Example 6, 5-Chloro-8-quinolinyl N-(2-chloroethyl)carbamate] | 75 (≈ 263 µM)

Same assay, conditions: ATCC25922, read-out: Minimum Inhibitory Concentration

Row | Structure (SMILES) | MIC [µg/mL]
6 | CNC(=O)Oc1c(Br)cc(Br)c2cccnc12 [Example 11, 5,7-Dibromo-8-quinolinyl N-methylcarbamate] | 25 (≈ 69.4 µM)

The compounds below were run on Escherichia coli ATCC 4157 in the same assay as above. Conditions: ATCC4157, Ec 4157, read-out: Minimum Inhibitory Concentration.
Type: cell-based
Experimental: as §1, §2, §3, §4

Row | Structure (SMILES) | MIC [µg/mL]
7 | O=C(NCCCl)Oc1ccc(Cl)c2cccnc12 [Example 6, 5-Chloro-8-quinolinyl N-(2-chloroethyl)carbamate] | 250 (≈ 877 µM)

Same assay, conditions: ATCC4157, read-out: Minimum Inhibitory Concentration

Row | Structure (SMILES) | MIC [µg/mL]
8 | CNC(=O)Oc1c(Br)cc(Br)c2cccnc12 [Example 11, 5,7-Dibromo-8-quinolinyl N-methylcarbamate] | 25 (≈ 69.4 µM)

The compounds below were run on Escherichia coli ATCC 9723 in the same assay as above. Conditions: ATCC9723, Ec 9723, read-out: Minimum Inhibitory Concentration.
Type: cell-based
Experimental: as §1, §2, §3, §4

Row | Structure (SMILES) | MIC [µg/mL]
9 | O=C(NCCCl)Oc1ccc(Cl)c2cccnc12 [Example 6, 5-Chloro-8-quinolinyl N-(2-chloroethyl)carbamate] | 50 (≈ 175 µM)

Same assay, conditions: ATCC9723, read-out: Minimum Inhibitory Concentration

Row | Structure (SMILES) | MIC [µg/mL]
10 | CNC(=O)Oc1c(Br)cc(Br)c2cccnc12 [Example 11, 5,7-Dibromo-8-quinolinyl N-methylcarbamate] | 25 (≈ 69.4 µM)

The compounds below were run on Klebsiella pneumoniae ATCC 23357 in the same assay as above. Conditions: ATCC23357, Kp 23357, read-out: Minimum Inhibitory Concentration.
Type: cell-based
Experimental: as §1, §2, §3, §4

Row | Structure (SMILES) | MIC [µg/mL]
11 | O=C(NCCCl)Oc1ccc(Cl)c2cccnc12 [Example 6, 5-Chloro-8-quinolinyl N-(2-chloroethyl)carbamate] | 250 (≈ 877 µM)

Same assay, conditions: ATCC23357, read-out: Minimum Inhibitory Concentration

Row | Structure (SMILES) | MIC [µg/mL]
12 | CNC(=O)Oc1c(Br)cc(Br)c2cccnc12 [Example 11, 5,7-Dibromo-8-quinolinyl N-methylcarbamate] | 25 (≈ 69.4 µM)

Each compound was assayed on Klebsiella pneumoniae M-1 in the same assay as above. Conditions: M1, Kp M-1, read-out: Minimum Inhibitory Concentration.
Type: cell-based
Experimental: as §1, §2, §3, §4

Row | Structure (SMILES) | MIC [µg/mL]
13 | O=C(NCCCl)Oc1ccc(Cl)c2cccnc12 [Example 6, 5-Chloro-8-quinolinyl N-(2-chloroethyl)carbamate] | 250 (≈ 877 µM)

Same assay, conditions: M1, read-out: Minimum Inhibitory Concentration

Row | Structure (SMILES) | MIC [µg/mL]
14 | CNC(=O)Oc1c(Br)cc(Br)c2cccnc12 [Example 11, 5,7-Dibromo-8-quinolinyl N-methylcarbamate] | 25 (≈ 69.4 µM)

Each compound was assayed on Klebsiella pneumoniae M-2 in the same assay as above. Conditions: M2, Kp M-2, read-out: Minimum Inhibitory Concentration.
Type: cell-based
Experimental: as §1, §2, §3, §4

Row | Structure (SMILES) | MIC [µg/mL]
15 | O=C(NCCCl)Oc1ccc(Cl)c2cccnc12 [Example 6, 5-Chloro-8-quinolinyl N-(2-chloroethyl)carbamate] | 500 (≈ 1750 µM)

Same assay, conditions: M2, read-out: Minimum Inhibitory Concentration

Row | Structure (SMILES) | MIC [µg/mL]
16 | CNC(=O)Oc1c(Br)cc(Br)c2cccnc12 [Example 11, 5,7-Dibromo-8-quinolinyl N-methylcarbamate] | 25 (≈ 69.4 µM)

The compounds below were run on Klebsiella pneumoniae M-6 in the same assay as above. Conditions: M6, Kp M-6, read-out: Minimum Inhibitory Concentration.
Type: cell-based
Experimental: as §1, §2, §3, §4

Row | Structure (SMILES) | MIC [µg/mL]
17 | O=C(NCCCl)Oc1ccc(Cl)c2cccnc12 [Example 6, 5-Chloro-8-quinolinyl N-(2-chloroethyl)carbamate] | 250 (≈ 877 µM)

Same assay, conditions: M6, read-out: Minimum Inhibitory Concentration

Row | Structure (SMILES) | MIC [µg/mL]
18 | CNC(=O)Oc1c(Br)cc(Br)c2cccnc12 [Example 11, 5,7-Dibromo-8-quinolinyl N-methylcarbamate] | 25 (≈ 69.4 µM)

These compounds were tested on Proteus mirabilis 470/1 in the same assay as above. Conditions: 470/1, read-out: Minimum Inhibitory Concentration.
Type: cell-based
Experimental: as §1, §2, §3, §4

Row | Structure (SMILES) | MIC [µg/mL]
19 | CNC(=O)Oc1c(Br)cc(Br)c2cccnc12 [Example 11, 5,7-Dibromo-8-quinolinyl N-methylcarbamate] | 25 (≈ 69.4 µM)

Same assay, conditions: Pm 470/1, read-out: Minimum Inhibitory Concentration

Row | Structure (SMILES) | MIC [µg/mL]
20 | O=C(NCCCl)Oc1ccc(Cl)c2cccnc12 [Example 6, 5-Chloro-8-quinolinyl N-(2-chloroethyl)carbamate] | 250 (≈ 877 µM)

What follows are compounds tested on Pseudomonas aeruginosa ATCC 10145 in the same assay as above. Conditions: ATCC10145, read-out: Minimum Inhibitory Concentration.
Type: cell-based
Experimental: as §1, §2, §3, §4

Row | Structure (SMILES) | MIC [µg/mL]
21 | CNC(=O)Oc1c(Br)cc(Br)c2cccnc12 [Example 11, 5,7-Dibromo-8-quinolinyl N-methylcarbamate] | 25 (≈ 69.4 µM)

Each compound was assayed on Pseudomonas aeruginosa ATCC 27853 in the same assay as above. Conditions: ATCC27853, Pa 27853, read-out: Minimum Inhibitory Concentration.
Type: cell-based
Experimental: as §1, §2, §3, §4

Row | Structure (SMILES) | MIC [µg/mL]
22 | O=C(NCCCl)Oc1ccc(Cl)c2cccnc12 [Example 6, 5-Chloro-8-quinolinyl N-(2-chloroethyl)carbamate] | 500 (≈ 1750 µM)

Same assay, conditions: ATCC27853, read-out: Minimum Inhibitory Concentration

Row | Structure (SMILES) | MIC [µg/mL]
23 | CNC(=O)Oc1c(Br)cc(Br)c2cccnc12 [Example 11, 5,7-Dibromo-8-quinolinyl N-methylcarbamate] | 100 (≈ 278 µM)

These compounds were tested on Pseudomonas aeruginosa ATCC 7700 in the same assay as above. Conditions: ATCC7700, Pa 7700, read-out: Minimum Inhibitory Concentration.
Type: cell-based
Experimental: as §1, §2, §3, §4

Row | Structure (SMILES) | MIC [µg/mL]
24 | O=C(NCCCl)Oc1ccc(Cl)c2cccnc12 [Example 6, 5-Chloro-8-quinolinyl N-(2-chloroethyl)carbamate] | 500 (≈ 1750 µM)

Same assay, conditions: ATCC7700, read-out: Minimum Inhibitory Concentration

Row | Structure (SMILES) | MIC [µg/mL]
25 | CNC(=O)Oc1c(Br)cc(Br)c2cccnc12 [Example 11, 5,7-Dibromo-8-quinolinyl N-methylcarbamate] | 100 (≈ 278 µM)

Each compound was assayed on Pseudomonas aeruginosa PRD-10 in the same assay as above. Conditions: PRD10, Pa PRD-10, read-out: Minimum Inhibitory Concentration.
Type: cell-based
Experimental: as §1, §2, §3, §4

Row | Structure (SMILES) | MIC [µg/mL]
26 | O=C(NCCCl)Oc1ccc(Cl)c2cccnc12 [Example 6, 5-Chloro-8-quinolinyl N-(2-chloroethyl)carbamate] | 500 (≈ 1750 µM)

Same assay, conditions: PRD10, read-out: Minimum Inhibitory Concentration

Row | Structure (SMILES) | MIC [µg/mL]
27 | CNC(=O)Oc1c(Br)cc(Br)c2cccnc12 [Example 11, 5,7-Dibromo-8-quinolinyl N-methylcarbamate] | 100 (≈ 278 µM)

These compounds were tested on Serratia marcescens M-1 in the same assay as above. Conditions: M1, Sr M-1, read-out: Minimum Inhibitory Concentration.
Type: cell-based
Experimental: as §1, §2, §3, §4

Row | Structure (SMILES) | MIC [µg/mL]
28 | O=C(NCCCl)Oc1ccc(Cl)c2cccnc12 [Example 6, 5-Chloro-8-quinolinyl N-(2-chloroethyl)carbamate] | 500 (≈ 1750 µM)

Same assay, conditions: M1, read-out: Minimum Inhibitory Concentration

Row | Structure (SMILES) | MIC [µg/mL]
29 | CNC(=O)Oc1c(Br)cc(Br)c2cccnc12 [Example 11, 5,7-Dibromo-8-quinolinyl N-methylcarbamate] | 50 (≈ 139 µM)

These compounds were tested on Staphylococcus aureus ATCC 25923 in the same assay as above. Conditions: ATCC25923, Sa 25923, read-out: Minimum Inhibitory Concentration.
Type: cell-based
Experimental: as §1, §2, §3, §4

Row | Structure (SMILES) | MIC [µg/mL]
30 | O=C(NCCCl)Oc1ccc(Cl)c2cccnc12 [Example 6, 5-Chloro-8-quinolinyl N-(2-chloroethyl)carbamate] | < 5

Same assay, conditions: ATCC25923, read-out: Minimum Inhibitory Concentration

Row | Structure (SMILES) | MIC [µg/mL]
31 | CNC(=O)Oc1c(Br)cc(Br)c2cccnc12 [Example 11, 5,7-Dibromo-8-quinolinyl N-methylcarbamate] | 25 (≈ 69.4 µM)
